# Experimental data reported in US6734212B2, “Methods and compositions for treating or preventing bacterial infection” (Shanghai East Best Biopharmaceutical, priority 2001, dated 2004).
# Read-outs that look alike come from different tables or passages of the source.
# How the values were obtained:
# H. pylori [1] = experiment: MIC against 9 strains of H. pylori; format: cell-based; conditions: 9 ATCC strains of H. pylori
# Description: MICs (μg/ml) of several substances against 9 strains (ATCC43504, ATCC43629, ATCC43526,ATCC43579,ATCC49503,ATCC51110,ATCC51652,ATCC51653, ATCC51932) of H. pylori were examined. NE-2001 had minimal inhibitory concentrations (MICs) ranging from 0.10 to 0.48 μg/ml.
# E. coli = experiment: Effects of GMCHA derivatives on E. coli growth; format: cell-based; conditions: for IC50: Escherichia coli; for E. coli IC91 / E. coli IC100: growth, Table 2
# E. coli Proteinase In = target: T1, E. coli Proteinase In (Escherichia coli, UniProt P27298); experiment: Inhibition of purified E. coli proteinase In (fluorogenic substrate Boc-Val-Pro-Arg-NH-Mec); format: biochemical
# T1 construct: We detected a single activity and had purified it to homogeneity; made in house; host or cells: endogenous enzyme purified from E. coli extracts (not recombinant)
# Text: Since the GMCHA derivatives were originally identified as synthetic trypsin inhibitors in vitro, we investigated whether a trypsin-like protease could be detected in E. coli extracts using as fluorogenic substrate Boc-Val-Pro-Arg-NH-Mec. (Kato et al., Eur. J. Biochem., 210:1007-1014 (1992)). We detected a single activity and had purified it to homogeneity. […] The purified enzyme has a molecular mass of ˜66 kDa and an isoelectric point of 4.9. Based upon pH optimum, hydrolytic activity on various synthetic substrates, and effects of various known proteolytic inhibitors, this E. coli protease has very different specificity than mammalian trypsin or any of known bacterial enzymes. Most exciting is the finding that the sensitivity of the purified enzyme to various GMCHA derivatives paralleled exactly their inhibitory effects on E. coli (Table 1). […] (Kato et al., Biol.Pharm. Bull., 16:552-557 (1993)). […]. […] We named this enzyme proteinase In, and its gene was identical with prlC. The prlC gene encoded a 67 kDa protein with two active sites for proteinase In and oligopeptidase A. (Jiang et al., J. Biochem., 124:980-985 (1998)). […] (Irisawa et al., Biol. Pharm. Bull., 16:1211-1215 (1993)).
# S. epidermidis = experiment: Effects of aromatic esters of GMCHA on growth of S. epidermidis; format: cell-based
# B. subtilis = experiment: Effects of aromatic esters of GMCHA on growth of B. subtilis; format: cell-based; conditions: for IC50: Bacillus subtilis
# S. aureus = experiment: Effects of aromatic esters of GMCHA on growth of S. aureus; format: cell-based; conditions: for IC20: Staphylococcus aureus, read-out: S. aureus IC20; for S. aureus IC100: growth
# H. pylori [2] = experiment: Bactericidal effect against H. pylori (time course, various concentrations and pH); format: cell-based; conditions: concentration ≧1.25 μg/ml
# Description: FIG. 2 illustrates the anti-H. pylori effects of the compound NE-2001. Bactericidal effect was examined at various concentration (0.15-2.50 μg/ml) for 168 hours. […] No visible organism was detected in 3 hr at a concentration of ≧1.25 μg/ml.
# H. pylori ATCC43504 = experiment: Appearance frequency of natural resistant mutation; format: cell-based
# Text: FIG. 3. Illustrates the anti-H. pylori effects of the compound NE-2001 at various pH values. The appearance frequency of natural resistant mutations against NE-2001 was examined (Table 4).
# [3] = Single dose toxicity in mice; format: in vivo
# [4] = system: synchronized E. coli cells; format: cell-based
# [5] = read-out: E. coli Proteinase In IC50
# T1 sequence (P27298 whole entry): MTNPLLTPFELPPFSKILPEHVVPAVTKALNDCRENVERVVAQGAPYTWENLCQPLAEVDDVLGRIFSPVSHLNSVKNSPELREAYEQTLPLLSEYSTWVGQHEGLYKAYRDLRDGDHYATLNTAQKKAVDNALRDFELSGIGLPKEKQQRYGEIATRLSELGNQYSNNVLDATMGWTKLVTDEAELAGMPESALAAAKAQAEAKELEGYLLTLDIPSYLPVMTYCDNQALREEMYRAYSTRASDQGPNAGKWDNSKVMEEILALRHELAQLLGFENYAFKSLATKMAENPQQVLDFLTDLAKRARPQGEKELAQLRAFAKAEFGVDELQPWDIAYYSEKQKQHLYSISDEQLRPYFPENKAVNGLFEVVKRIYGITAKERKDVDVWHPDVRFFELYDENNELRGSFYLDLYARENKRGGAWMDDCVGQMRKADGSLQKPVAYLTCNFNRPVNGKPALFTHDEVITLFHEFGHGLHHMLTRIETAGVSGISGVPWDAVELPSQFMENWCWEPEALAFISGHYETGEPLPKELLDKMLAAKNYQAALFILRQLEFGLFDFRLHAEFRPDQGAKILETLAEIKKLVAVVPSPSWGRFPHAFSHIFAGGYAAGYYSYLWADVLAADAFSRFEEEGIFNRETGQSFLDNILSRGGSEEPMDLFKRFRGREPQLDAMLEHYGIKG
SMILES,MIC Range (H. pylori [1]) [µg/mL],IC50 (E. coli) [µM],E. coli IC91 (E. coli),E. coli IC100 (E. coli) [µM],IC50 (E. coli Proteinase In) [µM],S. epidermidis IC91 (S. epidermidis),S. epidermidis IC100 (S. epidermidis) [µM],B. subtilis IC100 (B. subtilis) [µM],IC50 (B. subtilis) [µM],IC20 (S. aureus) [µM],S. aureus IC100 (S. aureus) [µM],further results
CC1(C)S[C@@H]2[C@H](NC(=O)[C@H](N)c3ccc(O)cc3)C(=O)N2[C@H]1C(=O)O [Amoxicillin],0.01 to 0.08,,,,,,,,,,,
N=C(N)NCC1CCC(C(=O)Oc2ccc(-c3ccccc3)cc2)CC1 (centres unmarked) [BP01],,26,26,40,17,0.4,1.5,10,4,0.6,2,
N=C(N)NCC1CCC(C(=O)Oc2ccccc2-c2ccccc2)CC1 (centres unmarked) [BP02],,74,,,83,,,,,,,
CC[C@H]1OC(=O)[C@H](C)[C@@H](O[C@H]2C[C@@](C)(OC)[C@@H](O)[C@H](C)O2)[C@H](C)[C@@H](O[C@@H]2O[C@H](C)C[C@H](N(C)C)[C@H]2O)[C@](C)(OC)C[C@@H](C)C(=O)[C@H](C)[C@@H](O)[C@]1(C)O [Clarithromycin],0.01 to 0.90,,,,,,,,,,,
Cc1ncc([N+](=O)[O-])n1CCO [Metronidazole],0.65 to 2.45,,,,,,,,,,,
"Cc1ccc(COC(=O)c2ccc(-c3ccc(OC(=O)c4ccc(CNC(=N)N)cc4)cc3)cc2)cc1 [NE-2001, 4-(4-methylbenzyl)-4′-[guanidinomethylbenzoyloxy] biphenyl-4-carboxylate]",0.10 to 0.48,,,,,,,,,,,"time at which no visible organism was detected (H. pylori [2]): 3 h; Frequency of natural resistant mutation (H. pylori ATCC43504; selected concentration of NE-2001 0.30 μg/ml): <3.4 × 10^−8; Frequency of natural resistant mutation (H. pylori ATCC43504; selected concentration of NE-2001 0.60 μg/ml): <3.4 × 10^−8; Frequency of natural resistant mutation (H. pylori ATCC43504; selected concentration of NE-2001 1.20 μg/ml): <3.4 × 10^−8; LD50 ([3]; mouse, in vivo, 2000 mg/kg, oral, single dose, male mice, 6 weeks): > 2000 mg/kg; animal deaths ([3]; mouse, in vivo, po, 2000 mg/kg): no animal deaths occurred; body weight ([3]; mouse, in vivo, po, 2000 mg/kg): all animals gained weight; general toxicity ([3]; oral 2000 mg/kg, male mice): observed in neither cases"
N=C(N)NCC1CCC(C(=O)Oc2ccccc2)CC1 (centres unmarked) [PH01],,> 200,>200,> 200,,128,> 200,> 200,> 200,151,> 200,IC50 (E. coli Proteinase In; [5]): > 200 µM
Cc1ccc(OC(=O)C2CCC(CNC(=N)N)CC2)cc1 (centres unmarked) [PH02],,> 200,>200,> 200,,48,120,> 200,> 200,47,120,IC50 (E. coli Proteinase In; [5]): > 200 µM
CCc1ccc(OC(=O)C2CCC(CNC(=N)N)CC2)cc1 (centres unmarked) [PH03],,167,167,> 200,,14,50,> 200,129,15,50,IC50 (E. coli Proteinase In; [5]): > 200 µM
CC(C)(C)c1ccc(OC(=O)C2CCC(CNC(=N)N)CC2)cc1 (centres unmarked) [PH04],,45,45,90,38,2.9,10,50,26,3.4,15,duration of R1 period [4]: 35 min; time at which DNA synthetic activity doubled [4]: 65 min; time of initiation of DNA synthesis [4]: 30 min
N=C(N)NCC1CCC(C(=O)Oc2ccc(Cl)cc2Cl)CC1 (centres unmarked) [PH05],,92,,,62,,,,,,,
N=C(N)NCC1CCC(C(=O)Oc2c(Cl)cc(Cl)cc2Cl)CC1 (centres unmarked) [PH06],,44,,,35,,,,,,,
